According to US8481567B2, “Sigma receptor compounds” (Laboratorios del Dr. Esteve, S.A., priority 2006, dated 2013):

Legend:
sigma-1 site = sigma-1 site (Homo sapiens, UniProt Q99720); details: statement in words, background section; cited from earlier work
sigma-2 site = sigma-2 site (Homo sapiens, UniProt Q5BJF2); details: statement in words, background section; cited from earlier work
Chain of sigma-2 site (Q5BJF2 whole entry): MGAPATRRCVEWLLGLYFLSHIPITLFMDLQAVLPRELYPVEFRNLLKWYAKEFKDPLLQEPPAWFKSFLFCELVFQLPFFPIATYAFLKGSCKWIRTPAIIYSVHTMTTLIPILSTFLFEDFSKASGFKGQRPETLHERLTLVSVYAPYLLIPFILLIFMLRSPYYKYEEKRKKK

Chain of sigma-1 site (Q99720 whole entry): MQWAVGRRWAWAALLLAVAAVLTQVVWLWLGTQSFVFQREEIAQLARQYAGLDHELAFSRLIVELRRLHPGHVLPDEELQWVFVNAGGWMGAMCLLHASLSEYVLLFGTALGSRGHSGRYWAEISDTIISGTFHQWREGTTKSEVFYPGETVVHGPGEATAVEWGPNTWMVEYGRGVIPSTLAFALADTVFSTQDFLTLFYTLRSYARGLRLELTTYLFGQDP

Compound	melting point [°C]	affinity for the sigma-1 site (sigma-1 site)	affinity for the sigma-2 site (sigma-2 site)
Cn1ccc2c1CCCC2CCN1CCC(O)(c2ccc(Cl)cc2)CC1.O=C(O)C(=O)O (stereo not shown)	154 to 155		
Cn1ccc2c1CCCC2CCN1CCC(c2ccccc2)CC1.O=C(O)C(=O)O (stereo not shown)	86 to 90		
SKF 10047		nanomolar	micromolar
